For test [1], the target named is GDP-bound NRAS wild-type protein (Homo sapiens, UniProt P01111). The test can be described thus: Binding to NRAS by surface plasmon resonance (SPR), KD and KD ratio to KRAS. To be noted: ratio of KD for GDP-bound NRAS wild-type protein to KD for KRAS. An outline of the steps: (§1)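 GDP-loaded biotinylated Avi-tag RAS proteins (E. coli-expressed) captured on a Biotin CAPture chip at ~100–300 RU; single-cycle kinetics at 30°C, 100 µL/min, 75 s injections of rising compound concentrations. HBS pH 7.4 running buffer with 1 mM DTT, 10 mM MgCl2, 10 µM GDP, 4% DMSO. KD from 1:1 binding fit.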
GDP-bound NRAS wild-type protein, sequence (P01111 whole entry): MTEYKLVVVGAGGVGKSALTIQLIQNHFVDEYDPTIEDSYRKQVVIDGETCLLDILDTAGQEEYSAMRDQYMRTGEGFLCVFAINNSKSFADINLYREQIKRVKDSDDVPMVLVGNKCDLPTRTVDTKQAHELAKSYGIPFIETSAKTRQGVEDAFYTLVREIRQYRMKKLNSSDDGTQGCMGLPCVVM
For orientation: Surface plasmon resonance follows binding to a sensor surface in real time, without labels.

For a further test, the target named is HRAS wild-type protein (Homo sapiens, UniProt P01112). The test can be described thus: Binding to HRAS by surface plasmon resonance (SPR), KD and KD ratio to KRAS. To be noted: ratio of KD for HRAS wild-type protein to KD for KRAS. An outline of the steps:
as §1

The test system of test [2] is human lung cancer strain NCI-H441. In kind it is cell-based. An outline of the steps:
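Readout: […] after the ATP-based reagent. Compound: serial dilutions in dimethyl sulfoxide.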

Results on five molecules are retold here after patent publication EP4603105A1, “PHARMACEUTICAL COMPOSITION CONTAINING CYCLIC COMPOUND HAVING SELECTIVE KRAS INHIBITORY EFFECT AGAINST HRAS AND NRAS” (CHUGAI SEIYAKU KABUSHIKI KAISHA, priority 2022, dated 2024).

What is called IC50 is the concentration that inhibits the measured activity by half.

*1 amine or outer side, *2 acyl side, *3 side chain or, on linkers, in order; H or OH if unused. Where a SMILES comes first, the peptide text is derived from it. Bridges are numbered along the chain shown (N, C = ends). [ ]: non-standard residue; d: D form. The star is where a group is joined. hPhe(3-Cl-4-CF3) = N[C@@H](CCc1ccc(C(F)(F)F)c(Cl)c1)C(=O)O; NEtPhe(4-CF3) = CCN[C@@H](Cc1ccc(C(F)(F)F)cc1)C(=O)O; X26 = CCCN([C@@H](Cc1ccc(F)cc1)C(=O)[*:2])[*:1]; NEtPhe(4-F) = CCN[C@@H](Cc1ccc(F)cc1)C(=O)O; NMePhe(4-F) = CN[C@@H](Cc1ccc(F)cc1)C(=O)O; NMeGly(cPent) = CN[C@H](C(=O)O)C1CCCC1; NMeD = CN[C@@H](CC(=O)O)C(=O)O; NMeL = CN[C@@H](CC(C)C)C(=O)O; Morpholide = C1CN(*)CCO1; NMeA = CN[C@@H](C)C(=O)O; Ac5c = NC1(C(=O)O)CCCC1; Aze = O=C(O)[C@@H]1CCN1; Ac3c = NC1(C(=O)O)CC1; Aib = CC(C)(N)C(=O)O; Sar = CNCC(=O)O

HRAS wild-type protein, sequence (P01112 whole entry): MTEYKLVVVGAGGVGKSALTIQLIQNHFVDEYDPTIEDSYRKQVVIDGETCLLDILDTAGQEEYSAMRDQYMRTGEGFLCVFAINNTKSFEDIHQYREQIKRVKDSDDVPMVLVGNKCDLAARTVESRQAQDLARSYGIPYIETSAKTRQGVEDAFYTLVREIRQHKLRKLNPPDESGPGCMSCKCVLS

As for `CC[C@H](C)[C@@H]1NC(=O)[C@H](CC(C)C)N(C)C(=O)C[C@@H](C(=O)N2CCOCC2)N(C)C(=O)[C@H](C2CCCC2)N(C)C(=O)C2(CCCC2)NC(=O)[C@@H]2CCCN2C(=O)[C@H](CCc2ccc(C(F)(F)F)c(Cl)c2)NC(=O)CN(C)C(=O)[C@H](Cc2ccc(F)cc2)N(C)C(=O)[C@@H]2CCN2C(=O)[C@H](C)N(C)C1=O` [PP0217] ([NMeL]I[NMeA][Aze][NMePhe(4-F)][Sar][hPhe(3-Cl-4-CF3)]P[Ac5c][NMeGly(cPent)][NMeD]-Morpholide; lactam N-11), in test [1], the “NRAS /KRAS” value is “C (A compound having a KD ratio of 0.1 or more and less than 3 is denoted as C)”. Besides, on HRAS wild-type protein, the “HRAS /KRAS” value is “C (A compound having a KD ratio of 0.1 or more and less than 3 is denoted as C)”. For the same molecule, in test [2], the 50% inhibitory concentration (IC50) was 18.1 nM.

As to `CC[C@H](C)[C@@H]1NC(=O)[C@H](CC(C)C)N(C)C(=O)C[C@@H](C(=O)N2CCOCC2)N(C)C(=O)[C@H](C2CCCC2)N(C)C(=O)C2(CCCC2)NC(=O)[C@@H]2CCCN2C(=O)[C@H](CCc2ccc(C(F)(F)F)c(Cl)c2)NC(=O)CN(C)C(=O)[C@H](Cc2ccc(F)cc2)N(CC)C(=O)[C@@H]2CCN2C(=O)[C@H](C)N(C)C1=O` [PP0218] ([NMeL]I[NMeA][Aze][NEtPhe(4-F)][Sar][hPhe(3-Cl-4-CF3)]P[Ac5c][NMeGly(cPent)][NMeD]-Morpholide; lactam N-11), the “NRAS /KRAS” value in test [1] was “C (A compound having a KD ratio of 0.1 or more and less than 3 is denoted as C)”. Further, the “HRAS /KRAS” value at HRAS wild-type protein is “C (A compound having a KD ratio of 0.1 or more and less than 3 is denoted as C)”. For the same molecule, in test [2], inhibition was half-maximal at 3.9 nM (IC50).

`CCCN1C(=O)[C@@H]2CCN2C(=O)[C@H](C)N(C)C(=O)[C@H]([C@@H](C)CC)NC(=O)[C@H](CC(C)C)N(C)C(=O)C[C@@H](C(=O)N2CCOCC2)N(C)C(=O)[C@H](C2CCCC2)N(C)C(=O)C2(CCCC2)NC(=O)[C@@H]2CCCN2C(=O)[C@H](CCc2ccc(C(F)(F)F)c(Cl)c2)NC(=O)CN(C)C(=O)[C@@H]1Cc1ccc(F)cc1` [PP0219] ([NMeL]I[NMeA][Aze][X26][Sar][hPhe(3-Cl-4-CF3)]P[Ac5c][NMeGly(cPent)][NMeD]-Morpholide; lactam N-11): the “NRAS /KRAS” value in test [1] is “C (A compound having a KD ratio of 0.1 or more and less than 3 is denoted as C)”. Moreover, the “HRAS /KRAS” value on HRAS wild-type protein was “B (a compound having 3 or more and less than 10 is denoted as B)”. The molecule also had an IC50 in test [2] of 2.2 nM.

Consider `CC[C@H](C)[C@@H]1NC(=O)[C@H](CC(C)C)N(C)C(=O)C[C@@H](C(=O)N2CCOCC2)N(C)C(=O)[C@H](C2CCCC2)N(C)C(=O)C2(CC2)NC(=O)[C@@H]2CCCN2C(=O)[C@H](CCc2ccc(C(F)(F)F)c(Cl)c2)NC(=O)CN(C)C(=O)[C@H](Cc2ccc(C(F)(F)F)cc2)N(CC)C(=O)[C@@H]2CCN2C(=O)[C@H](C)N(C)C1=O` [PP0220] ([NMeL]I[NMeA][Aze][NEtPhe(4-CF3)][Sar][hPhe(3-Cl-4-CF3)]P[Ac3c][NMeGly(cPent)][NMeD]-Morpholide; lactam N-11), for which the “NRAS /KRAS” value in test [1] was “C (A compound having a KD ratio of 0.1 or more and less than 3 is denoted as C)”. Moreover, on HRAS wild-type protein, the “HRAS /KRAS” value is “C (A compound having a KD ratio of 0.1 or more and less than 3 is denoted as C)”. Also, in test [2], the midpoint of inhibition, the IC50, lay at 7.7 nM.

Take `CC[C@H](C)[C@@H]1NC(=O)[C@H](CC(C)C)N(C)C(=O)C[C@@H](C(=O)N2CCOCC2)N(C)C(=O)[C@H](C2CCCC2)N(C)C(=O)C(C)(C)NC(=O)[C@@H]2CCCN2C(=O)[C@H](CCc2ccc(C(F)(F)F)c(Cl)c2)NC(=O)CN(C)C(=O)[C@H](Cc2ccc(C(F)(F)F)cc2)N(CC)C(=O)[C@@H]2CCN2C(=O)[C@H](C)N(C)C1=O` [PP0221] ([NMeL]I[NMeA][Aze][NEtPhe(4-CF3)][Sar][hPhe(3-Cl-4-CF3)]P[Aib][NMeGly(cPent)][NMeD]-Morpholide; lactam N-11): the “NRAS /KRAS” value in test [1] is “C (A compound having a KD ratio of 0.1 or more and less than 3 is denoted as C)”. Moreover, the “HRAS /KRAS” value on HRAS wild-type protein was “C (A compound having a KD ratio of 0.1 or more and less than 3 is denoted as C)”. Also, the IC50 in test [2] came out at 2.9 nM.
